Holding throughout (assay): Thermal stability shift assay
Holding throughout (format): binding

Assay [1] addresses VRK2 (Homo sapiens, UniProt Q86Y07). The following applies: read-out: Tm shift VRK2. A digest of the protocol: (§1)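 Inhibitor (10 μM) was mixed with kinase (2 μM) in HEPES-buffered saline (10 mM, pH 7.5; 500 mM NaCl) plus SyproOrange, then the sample was heated stepwise in a real-time PCR machine to record denaturation.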
In assay [2] the target is YSK1 (Homo sapiens, UniProt O00506). The settings on record: read-out: Tm shift YSK1. A digest of the protocol: as §1
YSK1, sequence (O00506 whole entry): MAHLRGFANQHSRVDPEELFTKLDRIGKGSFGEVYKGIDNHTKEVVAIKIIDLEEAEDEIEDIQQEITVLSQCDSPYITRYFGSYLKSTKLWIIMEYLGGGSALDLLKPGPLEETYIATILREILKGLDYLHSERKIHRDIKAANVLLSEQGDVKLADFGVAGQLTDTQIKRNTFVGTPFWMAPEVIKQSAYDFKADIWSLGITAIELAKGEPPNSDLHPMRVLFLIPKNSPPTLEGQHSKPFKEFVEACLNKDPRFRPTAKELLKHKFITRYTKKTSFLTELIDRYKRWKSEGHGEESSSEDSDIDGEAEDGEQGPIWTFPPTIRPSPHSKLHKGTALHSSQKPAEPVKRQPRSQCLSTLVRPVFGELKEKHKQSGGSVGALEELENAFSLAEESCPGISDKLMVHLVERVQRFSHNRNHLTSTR
In assay [3] the target is AAK1 (Homo sapiens, UniProt Q2M2I8). The following applies: read-out: Tm shift AAK1. A digest of the protocol:
as §1

Assay [4] deals with ACTR2 (Homo sapiens, UniProt P27037). The settings on record: read-out: Tm shift ACTR2. The method, boiled down:
as §1

Assay [5] has as its target T1, ALK2 (Homo sapiens, UniProt Q04771).
T1 sequence (Q04771 21-509): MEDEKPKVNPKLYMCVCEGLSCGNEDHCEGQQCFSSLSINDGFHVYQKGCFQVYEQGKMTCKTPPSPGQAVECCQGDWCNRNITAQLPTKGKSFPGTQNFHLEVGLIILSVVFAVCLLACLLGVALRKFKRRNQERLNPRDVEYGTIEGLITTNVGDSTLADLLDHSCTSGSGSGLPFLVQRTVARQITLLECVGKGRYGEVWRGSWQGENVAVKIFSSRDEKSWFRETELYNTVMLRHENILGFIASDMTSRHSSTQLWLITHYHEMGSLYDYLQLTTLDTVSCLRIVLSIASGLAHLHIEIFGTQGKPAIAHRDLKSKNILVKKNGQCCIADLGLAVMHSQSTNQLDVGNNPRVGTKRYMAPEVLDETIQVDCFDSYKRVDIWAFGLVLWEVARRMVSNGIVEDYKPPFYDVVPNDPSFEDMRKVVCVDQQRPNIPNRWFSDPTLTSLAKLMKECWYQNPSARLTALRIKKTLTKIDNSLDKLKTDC
The settings on record: read-out: Tm shift ALK2. A digest of the protocol:
as §1

Assay [6] addresses T2, GAK (Homo sapiens, UniProt O14976).
T2 construct: purchased in-house (SGC Oxford thermal shift panel)
T2 sequence (O14976 1-1311): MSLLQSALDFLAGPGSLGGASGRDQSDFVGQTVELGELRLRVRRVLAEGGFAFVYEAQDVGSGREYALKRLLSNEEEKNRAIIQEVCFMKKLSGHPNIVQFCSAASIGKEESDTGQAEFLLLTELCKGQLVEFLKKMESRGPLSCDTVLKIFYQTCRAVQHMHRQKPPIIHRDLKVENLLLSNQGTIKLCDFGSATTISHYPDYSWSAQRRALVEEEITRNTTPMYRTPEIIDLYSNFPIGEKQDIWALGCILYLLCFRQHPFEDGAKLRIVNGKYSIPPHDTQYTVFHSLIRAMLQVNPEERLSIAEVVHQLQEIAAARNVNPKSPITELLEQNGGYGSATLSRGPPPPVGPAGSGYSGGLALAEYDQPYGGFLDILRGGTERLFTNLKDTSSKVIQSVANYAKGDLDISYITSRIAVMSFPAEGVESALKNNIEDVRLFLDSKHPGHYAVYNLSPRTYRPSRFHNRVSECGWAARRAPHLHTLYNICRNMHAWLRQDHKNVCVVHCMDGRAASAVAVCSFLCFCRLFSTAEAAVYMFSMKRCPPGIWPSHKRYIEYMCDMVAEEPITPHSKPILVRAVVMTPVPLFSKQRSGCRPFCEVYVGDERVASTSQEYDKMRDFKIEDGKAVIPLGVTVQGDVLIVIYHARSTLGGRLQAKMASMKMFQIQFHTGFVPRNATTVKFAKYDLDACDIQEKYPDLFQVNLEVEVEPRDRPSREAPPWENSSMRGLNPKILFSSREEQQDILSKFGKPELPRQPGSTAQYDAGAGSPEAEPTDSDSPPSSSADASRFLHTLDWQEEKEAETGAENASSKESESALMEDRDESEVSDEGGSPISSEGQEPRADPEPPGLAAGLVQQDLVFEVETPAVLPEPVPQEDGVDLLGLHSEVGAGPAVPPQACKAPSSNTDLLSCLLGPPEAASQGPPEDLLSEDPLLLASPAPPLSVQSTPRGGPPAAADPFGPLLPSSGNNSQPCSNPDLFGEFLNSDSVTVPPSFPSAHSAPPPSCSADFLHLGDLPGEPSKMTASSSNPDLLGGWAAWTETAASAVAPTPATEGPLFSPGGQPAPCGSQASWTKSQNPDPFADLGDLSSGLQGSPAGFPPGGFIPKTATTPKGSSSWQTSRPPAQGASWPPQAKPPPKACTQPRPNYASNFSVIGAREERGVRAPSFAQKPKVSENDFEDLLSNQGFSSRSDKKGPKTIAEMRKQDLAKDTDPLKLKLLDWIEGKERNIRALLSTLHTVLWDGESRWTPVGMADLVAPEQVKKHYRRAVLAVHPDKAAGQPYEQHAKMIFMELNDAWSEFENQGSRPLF
The following applies: read-out: Tm shift GAK. The method, boiled down: as §1

Assay [7] has as its target T3, LYN (Homo sapiens, UniProt P07948).
T3 construct: purchased in-house (SGC Oxford thermal shift panel)
The following applies: read-out: Tm shift LYN. The method, boiled down:
as §1

In assay [8] the target is T4, p38d (Homo sapiens, UniProt O15264).
T4 construct: purchased in-house (SGC Oxford thermal shift panel)
T4 sequence (O15264 1-365): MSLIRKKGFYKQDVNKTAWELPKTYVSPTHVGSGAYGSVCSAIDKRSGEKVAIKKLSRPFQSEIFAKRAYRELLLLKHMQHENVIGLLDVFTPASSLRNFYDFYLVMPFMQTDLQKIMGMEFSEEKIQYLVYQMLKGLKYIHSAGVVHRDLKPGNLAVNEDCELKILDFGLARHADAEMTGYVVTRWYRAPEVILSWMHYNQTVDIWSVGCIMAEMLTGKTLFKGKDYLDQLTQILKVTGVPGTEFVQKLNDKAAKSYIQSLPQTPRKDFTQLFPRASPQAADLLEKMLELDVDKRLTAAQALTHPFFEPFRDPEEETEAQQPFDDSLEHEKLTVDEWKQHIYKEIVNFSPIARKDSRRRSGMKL
The settings on record: read-out: Tm shift p38d. The method, boiled down: as §1

Where two headings read alike, the source gives them in different places.

AAK1, sequence (Q2M2I8 whole entry): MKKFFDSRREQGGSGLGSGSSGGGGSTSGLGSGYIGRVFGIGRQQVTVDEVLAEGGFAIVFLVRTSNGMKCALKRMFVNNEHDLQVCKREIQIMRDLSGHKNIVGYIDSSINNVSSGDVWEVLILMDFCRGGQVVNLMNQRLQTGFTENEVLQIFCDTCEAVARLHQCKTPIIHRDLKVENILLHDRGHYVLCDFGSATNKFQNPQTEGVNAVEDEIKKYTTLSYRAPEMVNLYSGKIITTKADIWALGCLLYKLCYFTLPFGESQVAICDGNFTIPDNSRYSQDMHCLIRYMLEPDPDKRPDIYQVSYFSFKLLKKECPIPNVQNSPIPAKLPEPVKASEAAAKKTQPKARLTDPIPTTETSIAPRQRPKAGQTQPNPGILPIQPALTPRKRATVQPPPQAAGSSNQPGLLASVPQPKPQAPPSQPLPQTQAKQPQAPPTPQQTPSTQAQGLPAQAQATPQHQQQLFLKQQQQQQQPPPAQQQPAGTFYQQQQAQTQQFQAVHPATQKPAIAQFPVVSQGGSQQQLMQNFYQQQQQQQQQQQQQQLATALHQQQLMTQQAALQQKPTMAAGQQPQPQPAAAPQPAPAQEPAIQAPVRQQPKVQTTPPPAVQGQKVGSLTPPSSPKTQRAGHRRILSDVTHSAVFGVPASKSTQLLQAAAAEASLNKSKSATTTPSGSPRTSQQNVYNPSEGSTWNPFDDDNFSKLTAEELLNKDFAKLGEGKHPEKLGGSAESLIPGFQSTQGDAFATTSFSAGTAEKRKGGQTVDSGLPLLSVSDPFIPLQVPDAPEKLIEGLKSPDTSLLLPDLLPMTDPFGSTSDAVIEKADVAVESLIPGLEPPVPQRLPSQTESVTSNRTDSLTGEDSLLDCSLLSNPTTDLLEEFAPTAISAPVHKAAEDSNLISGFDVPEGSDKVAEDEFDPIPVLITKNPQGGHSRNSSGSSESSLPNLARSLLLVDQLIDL
VRK2, sequence (Q86Y07 whole entry): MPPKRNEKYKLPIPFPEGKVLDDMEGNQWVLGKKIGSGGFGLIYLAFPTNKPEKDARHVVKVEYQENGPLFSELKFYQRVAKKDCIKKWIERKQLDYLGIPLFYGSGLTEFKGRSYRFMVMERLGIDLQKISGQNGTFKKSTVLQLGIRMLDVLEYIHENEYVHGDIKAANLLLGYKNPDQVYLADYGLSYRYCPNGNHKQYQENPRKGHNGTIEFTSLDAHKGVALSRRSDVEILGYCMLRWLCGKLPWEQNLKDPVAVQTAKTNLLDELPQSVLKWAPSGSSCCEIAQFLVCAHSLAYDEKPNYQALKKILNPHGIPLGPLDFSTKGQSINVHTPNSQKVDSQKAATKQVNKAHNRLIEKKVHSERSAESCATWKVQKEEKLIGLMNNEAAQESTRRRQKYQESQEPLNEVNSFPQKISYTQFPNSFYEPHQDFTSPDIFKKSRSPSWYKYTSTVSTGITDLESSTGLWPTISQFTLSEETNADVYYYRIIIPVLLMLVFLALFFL
T3 sequence (P07948 whole entry): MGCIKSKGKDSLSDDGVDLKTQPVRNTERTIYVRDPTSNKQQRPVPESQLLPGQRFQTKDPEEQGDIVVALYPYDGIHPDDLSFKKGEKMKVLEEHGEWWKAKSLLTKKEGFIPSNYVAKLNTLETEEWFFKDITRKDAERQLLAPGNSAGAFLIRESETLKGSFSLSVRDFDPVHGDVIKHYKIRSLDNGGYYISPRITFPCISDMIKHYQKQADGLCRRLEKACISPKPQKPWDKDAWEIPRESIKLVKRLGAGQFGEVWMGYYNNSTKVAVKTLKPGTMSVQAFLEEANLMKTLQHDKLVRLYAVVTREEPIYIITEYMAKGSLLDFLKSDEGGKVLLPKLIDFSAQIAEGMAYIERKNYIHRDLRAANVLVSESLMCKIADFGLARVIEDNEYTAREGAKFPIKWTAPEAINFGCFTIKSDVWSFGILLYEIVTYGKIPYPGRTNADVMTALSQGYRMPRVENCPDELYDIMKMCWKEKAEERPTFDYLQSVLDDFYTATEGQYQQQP
ACTR2, sequence (P27037 20-513): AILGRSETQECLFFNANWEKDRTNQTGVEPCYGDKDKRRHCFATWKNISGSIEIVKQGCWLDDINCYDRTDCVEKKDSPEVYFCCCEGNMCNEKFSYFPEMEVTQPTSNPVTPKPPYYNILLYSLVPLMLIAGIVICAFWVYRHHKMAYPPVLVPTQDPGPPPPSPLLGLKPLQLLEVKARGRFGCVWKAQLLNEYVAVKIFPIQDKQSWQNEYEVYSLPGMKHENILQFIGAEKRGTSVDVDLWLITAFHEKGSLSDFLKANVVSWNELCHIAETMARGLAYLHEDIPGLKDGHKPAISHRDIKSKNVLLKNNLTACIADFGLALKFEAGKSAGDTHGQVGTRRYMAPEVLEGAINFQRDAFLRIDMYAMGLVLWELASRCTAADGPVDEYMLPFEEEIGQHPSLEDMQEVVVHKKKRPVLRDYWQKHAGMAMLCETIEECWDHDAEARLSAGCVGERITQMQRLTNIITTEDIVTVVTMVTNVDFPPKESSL

For `CCOC(=O)c1c(/C(C#N)=C\N)c2ccc(Cl)c(Cl)c2n1C` [KH-CB19, (E)-Ethyl 3-(2-Amino-1-Cyanovinyl)-6,7-Dichloro-1-Methyl-1H-Indole-2-Carboxylate], the ΔTm at 10 µM in assay [1] was -0.1 °C; in assay [2], -0.1 °C; in assay [3] it was 1.3 °C; in assay [4] it was 0.2 °C; in assay [5], 0.5 °C; in assay [6], 0.4 °C. Moreover, the ΔTm at 10 µM amounted to 0.2 °C in assay [7] and 0.3 °C in assay [8].

On to `NC1=NC(=O)/C(=C2\CCNC(=O)c3[nH]c(Br)cc32)N1` [Hymenialdisine, hymenialdisine, reference compound], for which the ΔTm at 10 µM in assay [1] (inhibitor 10 μM) came out at 0.8 °C; in assay [2] (inhibitor 10 μM) it was 1.7 °C; in assay [3] (inhibitor 10 μM), 2.7 °C; in assay [4] (inhibitor 10 μM), 0.7 °C; in assay [5] (inhibitor 10 μM) it was 2.1 °C; in assay [6] (inhibitor 10 μM) it was 3.8 °C. Moreover, the ΔTm at 10 µM in assay [7] (inhibitor 10 μM) is 0.3 °C; in assay [8] (inhibitor 10 μM) it was -0.1 °C.

Regarding `CCOC(=O)c1c(C(C#N)=CN)c2ccc(Cl)c(Cl)c2n1C` (mixture of isomers) [KH-CB20, (E/Z)-Ethyl 3-(2-Amino-1-Cyanovinyl)-6,7-Dichloro-1-Methyl-1H-Indole-2-Carboxylate], the ΔTm at 10 µM in assay [1] is 0.1 °C; in assay [2] it was 0.1 °C; in assay [3], 1.3 °C; in assay [4], 0.4 °C; in assay [5], 0.8 °C; in assay [6], 0.8 °C. The ΔTm at 10 µM in assay [7] is 0 °C; in assay [8], -0.3 °C.

`Cn1c2c(Cl)c(Cl)ccc2c2c(C#N)c[nH]c(=O)c21` [compound 3, 7,8-Dichloro-9-Methyl-1-Oxo-2,9-Dihydro-1H-Pyrido[3,4-b]Indole-4-Carbonitrile]: the ΔTm at 10 µM in assay [1] (inhibitor 10 μM) was determined as 0.1 °C; in assay [2] (inhibitor 10 μM), 0.2 °C; in assay [3] (inhibitor 10 μM), 1.4 °C; in assay [4] (inhibitor 10 μM), 0.8 °C; in assay [5] (inhibitor 10 μM), 0.5 °C; in assay [6] (inhibitor 10 μM) it was 0.8 °C. Besides, the ΔTm at 10 µM in assay [7] (inhibitor 10 μM) was 0.2 °C; in assay [8] (inhibitor 10 μM), 0.3 °C.

On to `CCOC(=O)c1c(C(C#N)=CN(C)C)c2ccc(Cl)c(Cl)c2n1C` (mixture of isomers) [compound 2, (E/Z)-Ethyl 6,7-Dichloro-3-[1-Cyano-2-(Dimethylamino)Vinyl]-1-Methyl-1H-Indole-2-Carboxylate], for which the ΔTm at 10 µM in assay [1] (inhibitor 10 μM) was 0.2 °C; in assay [2] (inhibitor 10 μM), 0.6 °C; in assay [3] (inhibitor 10 μM) it was 0.3 °C; in assay [4] (inhibitor 10 μM) it was 0.6 °C; in assay [5] (inhibitor 10 μM) it was -0.5 °C; in assay [6] (inhibitor 10 μM) it was 0.4 °C. For the same compound, the ΔTm at 10 µM was 0 °C in assay [7] (inhibitor 10 μM) and 0.4 °C in assay [8] (inhibitor 10 μM).

The values above are taken from PMC3145970, “Specific CLK Inhibitors from a Novel Chemotype for Regulation of Alternative Splicing” (Chemistry & Biology, 2011).
